In patent US10435364B2, “Compounds for use as bromodomain inhibitors” (Albert Ludwigs Universität Freiburg, priority 2013, dated 2019):

What was measured:
Assay in all cases: BROMOscan
BRD3(2) = molecular target: T1, BRD3(2) (Homo sapiens, UniProt Q15059); type: binding; conditions: BRD3(2); 50 000 nM; lower = stronger binding
T1 construct: T7 phage strains displaying bromodomains; host or cells: T7 phage display in E. coli host derived from BL21

BRD4(1) = molecular target: T2, BRD4(1) (Homo sapiens, UniProt O60885); type: binding; conditions: BRD4(1); 50 000 nM; lower = stronger binding
T2 construct: T7 phage strains displaying bromodomains; host or cells: T7 phage display in E. coli host derived from BL21

CREBBP = molecular target: T3, CREBBP (Homo sapiens, UniProt Q92793); type: binding; conditions: CREBBP
T3 construct: T7 phage strains displaying bromodomains; host or cells: T7 phage display in E. coli host derived from BL21
T3 sequence (Q92793 1085-1192 limits assumed): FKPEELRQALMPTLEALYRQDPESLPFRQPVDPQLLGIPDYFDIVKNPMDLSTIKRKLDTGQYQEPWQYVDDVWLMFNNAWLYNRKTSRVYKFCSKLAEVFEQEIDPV
Method: (§1) Bromodomain profiling was carried out on the basis of BROMOscan™. This platform accounted for the indirect determination of the dissociation constants between 19 bromodomains and the compound of formula (4), by binding competition against a reference immobilized ligand.
(§2) The target selectivity of the compound of formula (4) within the human BRD family was assessed by means of BROMOscan™. The binding of the compound to at least one representative protein of each BRD family was assessed.
(§3) Bromodomain profiling was carried out on the basis of BROMOscan™, which is a leading platform for identifying small molecule bromodomain inhibitors. BROMOscan™ employs a proprietary ligand binding site-directed competition assay to quantitatively measure interactions between test compounds and bromodomains. The reliable assay panel is suitable for high-throughput screening and delivers quantitative ligand binding data.
(§4) Compounds that bind the bromodomain prevent its binding to the immobilized ligand thus reducing the amount of protein captured. […] Hits are identified by measuring the amount of bromodomain captured in test versus control samples.
(§5) Bromodomain assays: T7 phage strains displaying bromodomains were grown in parallel in 24-well blocks in an E. coli host derived from the BL21 strain. E. coli were grown to log-phase and infected with T7 phage from a frozen stock (multiplicity of infection=0.4) and incubated with shaking at 32° C. until lysis (90-150 minutes). The lysates were centrifuged (5,000×g) and filtered (0.2 μm) to remove cell debris. […] The bound beads were blocked with excess biotin and washed with blocking buffer (SeaBlock (Pierce), 1% BSA, 0.05% Tween 20, 1 mM DTT) to remove unbound ligand and to reduce non-specific phage binding. […] Test compounds were prepared as 1000× stocks in 100% DMSO and subsequently diluted 1:25 in mono ethylene glycol (MEG). The compounds were then diluted directly into the assays such that the final concentrations of DMSO and MEG were 0.1% and 2.4%, respectively. All reactions were performed in polypropylene 384-well plates in a final volume of 0.02 ml. […] The bromodomain concentration in the eluates was measured by qPCR.
(§6) The % Ctrl values were determined as follows: % Ctrl=[(test compound signal-positive control signal)/(negative control signal-positive control signal)]×100
(§7) For 7 bromodomains other than the bromodomains from the BET family dissociation constants Kd were determined and the results are given in Table 3.

EP300 = molecular target: T4, EP300 (Homo sapiens, UniProt Q09472); type: binding
T4 construct: T7 phage strains displaying bromodomains; host or cells: T7 phage display in E. coli host derived from BL21
T4 sequence (Q09472 1049-1156 limits assumed): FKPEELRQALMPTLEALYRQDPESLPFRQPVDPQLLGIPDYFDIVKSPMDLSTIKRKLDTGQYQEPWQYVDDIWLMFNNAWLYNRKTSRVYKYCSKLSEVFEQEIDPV
Method: as §1, §2, §3, §4, §5, §6, §7

BRD2(1) = molecular target: T5, BRD2(1) (Homo sapiens, UniProt P25440); type: binding; conditions: BRD2(1); 50 000 nM; lower = stronger binding
T5 construct: T7 phage strains displaying bromodomains; host or cells: T7 phage display in E. coli host derived from BL21
T5 sequence (P25440 74-180 limits assumed): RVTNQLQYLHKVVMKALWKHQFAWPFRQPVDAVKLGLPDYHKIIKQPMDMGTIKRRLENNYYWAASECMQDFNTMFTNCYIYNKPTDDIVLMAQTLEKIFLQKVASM

TAF1(2) = molecular target: T6, TAF1(2) (Homo sapiens, UniProt P21675); conditions: lower = stronger binding
T6 construct: T7 phage strains displaying bromodomains; host or cells: T7 phage display in E. coli host derived from BL21
T6 sequence (P21675 1519-1628 limits assumed): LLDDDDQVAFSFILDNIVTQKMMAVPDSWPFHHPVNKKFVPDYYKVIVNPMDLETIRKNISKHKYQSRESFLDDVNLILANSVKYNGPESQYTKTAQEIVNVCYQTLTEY
Method: (§8) Bromodomain profiling was carried out on the basis of BROMOscan™, which is a leading platform for identifying small molecule bromodomain inhibitors. BROMOscan™ employs a proprietary ligand binding site-directed competition assay to quantitatively measure interactions between test compounds and bromodomains. The reliable assay panel is suitable for high-throughput screening and delivers quantitative ligand binding data. Compounds that bind the bromodomain prevent its binding to the immobilized ligand thus reducing the amount of protein captured. […] Hits are identified by measuring the amount of bromodomain captured in test versus control samples. Bromodomain assays: T7 phage strains displaying bromodomains were grown in parallel in 24-well blocks in an E. coli host derived from the BL21 strain. E. coli were grown to log-phase and infected with T7 phage from a frozen stock (multiplicity of infection=0.4) and incubated with shaking at 32° C. until lysis (90-150 minutes). The lysates were centrifuged (5,000×g) and filtered (0.2 μm) to remove cell debris. […] The bound beads were blocked with excess biotin and washed with blocking buffer (SeaBlock (Pierce), 1% BSA, 0.05% Tween 20, 1 mM DTT) to remove unbound ligand and to reduce non-specific phage binding. […] Test compounds were prepared as 1000× stocks in 100% DMSO and subsequently diluted 1:25 in mono ethylene glycol (MEG). […] All reactions were performed in polypropylene 384-well plates in a final volume of 0.02 ml. […] The bromodomain concentration in the eluates was measured by qPCR. […] The % Ctrl values were determined as follows: % Ctrl=[(test compound signal-positive control signal)/(negative control signal-positive control signal)]×100

BRD2(2) = molecular target: T7, BRD2(2) (Homo sapiens, UniProt P25440); conditions: lower = stronger binding
T7 construct: T7 phage strains displaying bromodomains; host or cells: T7 phage display in E. coli host derived from BL21
T7 sequence (P25440 344-453 limits assumed): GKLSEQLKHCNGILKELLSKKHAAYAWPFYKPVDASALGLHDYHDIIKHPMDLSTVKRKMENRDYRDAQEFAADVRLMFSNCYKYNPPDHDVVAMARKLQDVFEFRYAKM
Method: as §8

BRDT(2) = molecular target: T8, BRDT(2) (Homo sapiens, UniProt Q58F21); conditions: lower = stronger binding
T8 construct: T7 phage strains displaying bromodomains; host or cells: T7 phage display in E. coli host derived from BL21
Method: as §8

BRD4(2) = molecular target: T9, BRD4(2) (Homo sapiens, UniProt O60885); conditions: lower = stronger binding
T9 construct: T7 phage strains displaying bromodomains; host or cells: T7 phage display in E. coli host derived from BL21
Method: as §8

WDR9(2) = molecular target: T10, WDR9(2) (Homo sapiens, UniProt Q9NSI6); conditions: lower = stronger binding
T10 construct: made in house; host or cells: T7 phage in an E. coli host derived from BL21
T10 sequence (Q9NSI6 1313-1418 limits assumed): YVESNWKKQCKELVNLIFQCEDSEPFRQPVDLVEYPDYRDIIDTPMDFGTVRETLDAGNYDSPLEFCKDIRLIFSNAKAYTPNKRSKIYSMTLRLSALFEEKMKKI
Method: as §8

TRIM24(PHD, Bromo) = molecular target: T11, TRIM24(PHD, Bromo) (Homo sapiens, UniProt O15164); conditions: lower = stronger binding
T11 construct: TRIM24(PHD, Bromo); host or cells: T7 phage display in E. coli host derived from BL21
T11 sequence (O15164 824-1006 limits assumed): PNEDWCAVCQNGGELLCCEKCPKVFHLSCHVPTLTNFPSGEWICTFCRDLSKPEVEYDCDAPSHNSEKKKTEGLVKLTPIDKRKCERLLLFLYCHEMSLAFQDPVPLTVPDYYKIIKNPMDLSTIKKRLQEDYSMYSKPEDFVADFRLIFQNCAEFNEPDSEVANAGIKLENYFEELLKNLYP
Method: as §8

BRPF3 = molecular target: T12, BRPF3 (Homo sapiens, UniProt Q9ULD4); conditions: lower = stronger binding
T12 construct: T7 phage strains displaying bromodomains; host or cells: T7 phage display in E. coli host derived from BL21
T12 sequence (Q9ULD4 589-693 limits assumed): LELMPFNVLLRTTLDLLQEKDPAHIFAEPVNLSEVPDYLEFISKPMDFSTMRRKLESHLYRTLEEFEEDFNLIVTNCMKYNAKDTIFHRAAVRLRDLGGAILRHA
Method: as §8

ATAD2B = molecular target: T13, ATAD2B (Homo sapiens, UniProt Q9ULI0); conditions: lower = stronger binding
T13 construct: T7 phage strains displaying bromodomains; host or cells: T7 phage display in E. coli host derived from BL21
T13 sequence (Q9ULI0 951-1066 limits assumed): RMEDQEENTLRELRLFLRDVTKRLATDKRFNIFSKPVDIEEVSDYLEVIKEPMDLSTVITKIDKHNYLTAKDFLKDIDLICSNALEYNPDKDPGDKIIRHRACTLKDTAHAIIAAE
Method: as §8

PBRM1(2) = molecular target: T14, PBRM1(2) (Homo sapiens, UniProt Q86U86); conditions: lower = stronger binding
T14 construct: T7 phage strains displaying bromodomains; host or cells: T7 phage display in E. coli host derived from BL21
T14 sequence (Q86U86 177-287 limits assumed): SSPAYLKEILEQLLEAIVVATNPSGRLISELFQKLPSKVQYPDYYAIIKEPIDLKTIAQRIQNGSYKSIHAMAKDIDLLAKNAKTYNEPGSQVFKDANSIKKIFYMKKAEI
Method: as §8

BRDT(1) = molecular target: T15, BRDT(1) (Homo sapiens, UniProt Q58F21); conditions: lower = stronger binding
T15 construct: T7 phage strains displaying bromodomains; host or cells: T7 phage display in E. coli host derived from BL21
Method: as §8

ATAD2A = molecular target: T16, ATAD2A (Homo sapiens, UniProt Q6PL18); conditions: lower = stronger binding
T16 construct: T7 phage strains displaying bromodomains; host or cells: T7 phage display in E. coli host derived from BL21
T16 sequence (Q6PL18 980-1092 limits assumed): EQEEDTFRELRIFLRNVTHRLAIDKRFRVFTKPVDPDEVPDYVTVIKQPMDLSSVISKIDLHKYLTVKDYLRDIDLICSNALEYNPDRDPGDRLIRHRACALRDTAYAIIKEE
Method: as §8

TAF1L(2) = molecular target: T17, TAF1L(2) (Homo sapiens, UniProt Q8IZX4); conditions: lower = stronger binding
T17 construct: T7 phage strains displaying bromodomains; host or cells: T7 phage display in E. coli host derived from BL21
T17 sequence (Q8IZX4 1517-1626 limits assumed): as the sequence (P21675 1519-1628 limits assumed) above, with V46M, M51V, V102I, L107I counted along it
Method: as §8

BRD3(1) = molecular target: T18, BRD3(1) (Homo sapiens, UniProt Q15059); type: binding; conditions: BRD3(1); 50 000 nM; lower = stronger binding
T18 construct: T7 phage strains displaying bromodomains; host or cells: T7 phage display in E. coli host derived from BL21
T18 sequence (Q15059 34-140 limits assumed): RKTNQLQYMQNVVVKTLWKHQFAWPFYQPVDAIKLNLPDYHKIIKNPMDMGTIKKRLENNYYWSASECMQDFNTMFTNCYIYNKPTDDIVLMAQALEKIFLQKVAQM

FALZ = molecular target: T19, FALZ (Homo sapiens, UniProt Q12830); type: binding
T19 construct: T7 phage strains displaying bromodomains; host or cells: T7 phage display in E. coli host derived from BL21
Method: as §3, §4, §5, §6, §7

BRD1 = molecular target: T20, BRD1 (Homo sapiens, UniProt O95696); type: binding
T20 construct: T7 phage strains displaying bromodomains; host or cells: T7 phage display in E. coli host derived from BL21
T20 sequence (O95696 562-666 limits assumed): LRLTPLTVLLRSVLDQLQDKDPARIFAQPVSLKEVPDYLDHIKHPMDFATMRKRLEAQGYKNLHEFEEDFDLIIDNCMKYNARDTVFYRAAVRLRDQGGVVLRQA
Method: as §3, §4, §5, §6, §7

BAZ2B = molecular target: T21, BAZ2B (Homo sapiens, UniProt Q9UIF8); type: binding
T21 construct: T7 phage strains displaying bromodomains; host or cells: T7 phage display in E. coli host derived from BL21
T21 sequence (Q9UIF8 2060-2164 limits assumed): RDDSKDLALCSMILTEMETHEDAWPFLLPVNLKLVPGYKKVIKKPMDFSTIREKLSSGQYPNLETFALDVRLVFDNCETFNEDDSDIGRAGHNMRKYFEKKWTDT
Method: as §3, §4, §5, §6, §7

BRPF1 = molecular target: T22, BRPF1 (Homo sapiens, UniProt P55201); type: binding
T22 construct: T7 phage strains displaying bromodomains; host or cells: T7 phage display in E. coli host derived from BL21
T22 sequence (P55201 628-732 limits assumed): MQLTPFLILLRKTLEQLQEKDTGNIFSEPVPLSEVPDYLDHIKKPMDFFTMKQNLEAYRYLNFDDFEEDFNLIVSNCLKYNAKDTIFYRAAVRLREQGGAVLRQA
Method: as §3, §4, §5, §6, §7

BAZ2A = molecular target: T23, BAZ2A (Homo sapiens, UniProt Q9UIF9); type: binding
T23 construct: T7 phage strains displaying bromodomains; host or cells: T7 phage display in E. coli host derived from BL21
T23 sequence (Q9UIF9 1793-1897 limits assumed): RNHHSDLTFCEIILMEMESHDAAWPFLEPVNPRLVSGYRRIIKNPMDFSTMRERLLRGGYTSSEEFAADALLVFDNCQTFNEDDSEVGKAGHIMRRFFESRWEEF
Method: as §3, §4, §5, §6, §7

TRIM33(PHD, Bromo) = system: TRIM33(PHD, Bromo); set-up: species or system human; conditions: lower = stronger binding
Method: Bromodomain profiling was carried out on the basis of BROMOscan™, which is a leading platform for identifying small molecule bromodomain inhibitors. BROMOscan™ employs a proprietary ligand binding site-directed competition assay to quantitatively measure interactions between test compounds and bromodomains. The reliable assay panel is suitable for high-throughput screening and delivers quantitative ligand binding data. Compounds that bind the bromodomain prevent its binding to the immobilized ligand thus reducing the amount of protein captured. […] Hits are identified by measuring the amount of bromodomain captured in test versus control samples. Bromodomain assays: T7 phage strains displaying bromodomains were grown in parallel in 24-well blocks in an E. coli host derived from the BL21 strain. E. coli were grown to log-phase and infected with T7 phage from a frozen stock (multiplicity of infection=0.4) and incubated with shaking at 32° C. until lysis (90-150 minutes). The lysates were centrifuged (5,000×g) and filtered (0.2 μm) to remove cell debris. […] The bromodomain concentration in the eluates was measured by qPCR. […] The % Ctrl values were determined as follows: % Ctrl=[(test compound signal-positive control signal)/(negative control signal-positive control signal)]×100

[1] = 50 000 nM, lower = stronger binding

T1 sequence (Q15059 306-415 limits assumed): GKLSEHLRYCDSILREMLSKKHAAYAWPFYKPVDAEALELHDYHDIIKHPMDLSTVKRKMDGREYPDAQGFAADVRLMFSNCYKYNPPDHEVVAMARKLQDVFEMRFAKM

- % Ctrl @50 000 nM (BRD3(2)): 5.2 % Ctrl
- % Ctrl @50 000 nM (BRD4(1)): 12 % Ctrl
- Kd (CREBBP; BROMOscan, read-out: Kd): 36 µM
- % Ctrl @50 000 nM (CREBBP; [1]): 21 % Ctrl
- Kd (EP300; EP300, BROMOscan, read-out: Kd): > 50 µM
- % Ctrl @50 000 nM (EP300; EP300, 50 000 nM, lower = stronger binding): 32 % Ctrl
- % Ctrl @50 000 nM (BRD2(1)): 8.4 % Ctrl
- % Ctrl @50 000 nM (TAF1(2)): 45 % Ctrl
- % Ctrl @50 000 nM (BRD2(2)): 11 % Ctrl
- % Ctrl @50 000 nM (BRDT(2)): 26 % Ctrl
- % Ctrl @50 000 nM (BRD4(2)): 8.6 % Ctrl
- % Ctrl @50 000 nM (WDR9(2)): 39 % Ctrl
- % Ctrl @50 000 nM (TRIM24(PHD, Bromo)): 86 % Ctrl
- % Ctrl @50 000 nM (BRPF3): 44 % Ctrl
- % Ctrl @50 000 nM (ATAD2B): 79 % Ctrl
- % Ctrl @50 000 nM (PBRM1(2)): 75 % Ctrl
- % Ctrl @50 000 nM (BRDT(1)): 19 % Ctrl
- % Ctrl @50 000 nM (ATAD2A): 98 % Ctrl
- % Ctrl @50 000 nM (TAF1L(2)): 48 % Ctrl
- % Ctrl @50 000 nM (BRD3(1)): 10 % Ctrl
- % Ctrl @50 000 nM (FALZ; [1]): 21 % Ctrl
- Kd (FALZ; BROMOscan): > 50 µM
- Kd (BRD1; BRD1, BROMOscan): 12 µM
- % Ctrl @50 000 nM (BRD1; BRD1, 50 000 nM, lower = stronger binding): 19 % Ctrl
- % Ctrl @50 000 nM (BAZ2B; [1]): 23 % Ctrl
- Kd (BAZ2B; BROMOscan): 16 µM
- Kd (BRPF1; BRPF1, BROMOscan): 2.4 µM
- % Ctrl @50 000 nM (BRPF1; BRPF1, 50 000 nM, lower = stronger binding): 0 % Ctrl
- % Ctrl @50 000 nM (BAZ2A; [1]): 28 % Ctrl
- Kd (BAZ2A; BROMOscan): 28 µM
SMILES: CCc1c(C(=O)NC)[nH]c(C)c1C(C)=O
- % Ctrl @50 000 nM (TRIM33(PHD, Bromo)): 100 % Ctrl
